“Also recorded” adds a separate entry of the source.
Key:
human TRPM8 = molecular target: T1, human TRPM8 (Homo sapiens, UniProt Q7Z2W7); experiment: FLIPR calcium assay on cloned human TRPM8 channels expressed in CHO cells; format: cell-based
T1 construct: host or cells: CHO cells
Description: AX-8 potency was assessed using Fluorescence Imaging Plate Reader (FLIPR®) assays (study performed by ChanTest/Charles River). The in vitro effects were evaluated on cloned human TRPM8 channels expressed in CHO cells using a Fluo-8 calcium kit and a Fluorescence Imaging Plate Reader ([…]™) instrument. Changes is fluorescence intensity, reflecting the calcium flux through hTRPM8, were measured and the area under the signals (area under the curve, AUC) calculated and expressed in relative light units. Changes induced by the vehicle (HEPES-buffered physiological saline solution, HB-PS) were subtracted.

hTRPA1 = molecular target: T2, hTRPA1 (Homo sapiens, UniProt O75762); experiment: FLIPR calcium assay, selectivity against hTRPA1 (expressed in CHO); format: cell-based
T2 construct: expressed in transfected cells; host or cells: CHO
T2 sequence (O75762 whole entry): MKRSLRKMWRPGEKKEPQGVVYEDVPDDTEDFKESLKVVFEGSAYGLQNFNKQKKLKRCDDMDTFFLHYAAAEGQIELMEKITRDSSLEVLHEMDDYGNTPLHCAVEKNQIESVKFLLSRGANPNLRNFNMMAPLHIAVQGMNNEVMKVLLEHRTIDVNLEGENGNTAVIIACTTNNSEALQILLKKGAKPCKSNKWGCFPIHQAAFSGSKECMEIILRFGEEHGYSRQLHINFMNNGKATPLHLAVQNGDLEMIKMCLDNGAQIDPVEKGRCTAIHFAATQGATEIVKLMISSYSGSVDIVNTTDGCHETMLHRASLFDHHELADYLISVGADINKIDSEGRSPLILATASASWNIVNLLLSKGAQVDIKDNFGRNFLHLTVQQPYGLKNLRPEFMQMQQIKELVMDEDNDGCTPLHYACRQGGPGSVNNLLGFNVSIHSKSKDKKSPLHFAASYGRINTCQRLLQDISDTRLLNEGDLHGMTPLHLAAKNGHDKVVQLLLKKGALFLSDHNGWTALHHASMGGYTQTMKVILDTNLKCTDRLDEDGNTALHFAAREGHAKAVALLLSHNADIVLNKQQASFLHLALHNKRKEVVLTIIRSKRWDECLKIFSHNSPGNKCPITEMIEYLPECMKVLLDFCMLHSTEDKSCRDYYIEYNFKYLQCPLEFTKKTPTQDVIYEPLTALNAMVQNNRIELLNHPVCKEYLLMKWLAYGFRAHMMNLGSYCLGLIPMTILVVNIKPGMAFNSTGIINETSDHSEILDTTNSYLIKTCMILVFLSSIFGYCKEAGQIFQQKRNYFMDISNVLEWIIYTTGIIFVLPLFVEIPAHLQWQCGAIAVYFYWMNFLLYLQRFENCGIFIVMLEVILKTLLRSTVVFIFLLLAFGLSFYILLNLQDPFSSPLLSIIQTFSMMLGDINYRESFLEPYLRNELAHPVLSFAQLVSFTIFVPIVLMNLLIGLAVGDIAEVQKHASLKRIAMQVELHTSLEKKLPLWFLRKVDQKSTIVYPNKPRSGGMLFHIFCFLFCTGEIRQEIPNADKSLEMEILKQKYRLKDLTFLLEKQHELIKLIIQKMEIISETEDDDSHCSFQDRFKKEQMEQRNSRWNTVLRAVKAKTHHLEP
Description: (§1) Similarly, selectivity against hTRPA1 (expressed in CHO) and hTRPV1 (expressed in HEK-293) was assessed using FLIPR® calcium assay (at 100 μM, i.e., 10-fold more than the concentration for maximal response; see FIG. 12). […] For the agonist effect assessment, the effect of AX-8 was evaluated in the absence of the positive control agonist. The maximal signal elicited in the presence of the respective agonist (300 μM mustard oil for TRPA1; 3 μM capsaicin for TRPV1) was set to 100% activation and the signal in the presence of the vehicle control (HB-PS) was set to 0% activation. For the antagonist effect assessment, the channels were activated with the respective positive control agonist (100 μM mustard oil for TRPA1; 0.1 μM capsaicin for TRPV1). The effects of AX-8 to inhibit the signal was examined after agonist stimulation and compared to the respective positive control antagonist (3 μM ruthenium red). For each channel, the signal elicited in the presence of the respective positive control agonist was set to 100 (0% inhibition) and the signal in the presence of the respective positive control antagonist was set to 0 (100% inhibition).

hTRPV1 = molecular target: T3, hTRPV1 (Homo sapiens, UniProt Q8NER1); experiment: FLIPR calcium assay, selectivity against hTRPV1 (expressed in HEK-293); format: cell-based
T3 construct: expressed in transfected cells; host or cells: HEK-293
T3 sequence (Q8NER1 whole entry): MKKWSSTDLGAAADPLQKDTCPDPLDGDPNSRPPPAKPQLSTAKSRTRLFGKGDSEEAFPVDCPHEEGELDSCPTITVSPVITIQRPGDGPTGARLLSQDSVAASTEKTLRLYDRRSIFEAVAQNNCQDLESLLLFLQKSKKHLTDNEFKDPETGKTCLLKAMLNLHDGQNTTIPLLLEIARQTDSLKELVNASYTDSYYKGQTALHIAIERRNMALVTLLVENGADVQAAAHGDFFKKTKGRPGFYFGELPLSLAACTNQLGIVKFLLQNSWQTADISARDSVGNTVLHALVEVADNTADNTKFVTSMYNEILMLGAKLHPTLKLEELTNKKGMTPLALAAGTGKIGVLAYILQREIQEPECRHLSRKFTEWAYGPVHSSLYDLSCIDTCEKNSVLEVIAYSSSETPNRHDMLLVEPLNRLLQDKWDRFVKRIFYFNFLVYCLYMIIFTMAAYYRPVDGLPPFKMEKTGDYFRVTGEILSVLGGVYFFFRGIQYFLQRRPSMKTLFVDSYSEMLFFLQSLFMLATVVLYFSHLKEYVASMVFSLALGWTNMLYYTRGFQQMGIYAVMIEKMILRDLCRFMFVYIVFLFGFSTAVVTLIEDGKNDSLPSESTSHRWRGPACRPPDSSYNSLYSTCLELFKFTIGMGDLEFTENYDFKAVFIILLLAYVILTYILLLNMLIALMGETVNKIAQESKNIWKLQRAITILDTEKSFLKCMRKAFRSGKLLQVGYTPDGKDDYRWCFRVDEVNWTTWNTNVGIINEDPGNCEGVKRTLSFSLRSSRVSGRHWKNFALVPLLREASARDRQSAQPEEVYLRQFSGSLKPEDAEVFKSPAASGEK
Description: as §1

[1] = tested on: isolated guinea pig vagal nerves; experiment: Capsaicin-induced depolarization on isolated guinea pig vagal nerves (grease-gap recording)
Description: The vagal nerve is the main afferent pathway of the cough reflex loop. Therefore, the ability—and dependence on TRPM8—of AX-8 to inhibit the capsaicin-induced depolarization on isolated guinea pig vagal nerves was assessed. The tissue was assayed using an O2/CO2 gassed, grease-gap recording system as previously described (see, e.g., Birrell et al., 2009). Briefly, after the tissue has stabilised, it was exposed to a challenge (capsaicin, 1 μM, TRPV1 agonist for 2 minutes), then washed. This was then repeated to confirm the basal response. After washing, the tissue was incubated with vehicle or AX-8 (10 nM-1 mM) for 10 minutes. Following this, the tissue was re-challenged with capsaicin (in the presence of vehicle or AX-8).
Where the TRPM8 antagonist PF-05105679 (PF, 10 μM) was used, following the two reproducible responses to capsaicin, the nerve was incubated with the TRPM8 antagonist or vehicle (0.1% DMSO) for 10 minutes, prior to incubation with AX-8 or vehicle for 10 minutes. The nerve was then restimulated with capsaicin in the presence of PF/Vehicle and AX-8/Vehicle and the percentage of inhibition of the original response calculated. Following a wash period, the nerve was then restimulated with capsaicin to determine viability. The level of depolarization was recorded at each phase. The data were recorded as actual depolarisation levels and as a percentage inhibition (caused by the vehicle or test compound) of the mean of the initial, control recordings.

capsaicin-induced cough = experiment: Capsaicin-induced cough in awake guinea pig; format: in vivo
Description: AX-8's antitussive effect was evaluated in a standardized guinea pig model of cough (see, e.g., Brozmanova et al., 2012; Dong et al., 2016). Guinea pigs were placed in a plethysmography chamber and exposed for 10 minutes to nebulized capsaicin solution (0.1 mM) to induce cough. The cough frequency was detected as a transient change in airflow in the chamber and the signal recorded via a pressure transducer and computer. Additionally, the audio-amplified count was also recorded electronically. Coughs were counted for the 10-minute exposure period. The experiment was visually monitored by the investigator. A 5 mg/mL AX-8 solution was prepared by dissolving AX-8 in absolute ethanol at 200 mg/mL and then diluting in a solution of 4 mg/mL of sweet potato powder in saline (i.e., vehicle). The baseline frequency of coughing in response to exposure to capsaicin mist was recorded for the control (vehicle only) and treated (AX-8) group of animals (n=10 animals per group). Seven days later, animals were anesthetized with diethyl ether and a small animal laryngoscope was used to place the tip of a micro sprayer syringe in the oral cavity. Vehicle or AX-8 was administered into the oropharyngeal region at 75 μL per animal (n=10 animals per group). […] Ten minutes after administration, the guinea pigs were exposed to the capsaicin mist and the number of coughs recorded.

T1 sequence (Q7Z2W7 whole entry): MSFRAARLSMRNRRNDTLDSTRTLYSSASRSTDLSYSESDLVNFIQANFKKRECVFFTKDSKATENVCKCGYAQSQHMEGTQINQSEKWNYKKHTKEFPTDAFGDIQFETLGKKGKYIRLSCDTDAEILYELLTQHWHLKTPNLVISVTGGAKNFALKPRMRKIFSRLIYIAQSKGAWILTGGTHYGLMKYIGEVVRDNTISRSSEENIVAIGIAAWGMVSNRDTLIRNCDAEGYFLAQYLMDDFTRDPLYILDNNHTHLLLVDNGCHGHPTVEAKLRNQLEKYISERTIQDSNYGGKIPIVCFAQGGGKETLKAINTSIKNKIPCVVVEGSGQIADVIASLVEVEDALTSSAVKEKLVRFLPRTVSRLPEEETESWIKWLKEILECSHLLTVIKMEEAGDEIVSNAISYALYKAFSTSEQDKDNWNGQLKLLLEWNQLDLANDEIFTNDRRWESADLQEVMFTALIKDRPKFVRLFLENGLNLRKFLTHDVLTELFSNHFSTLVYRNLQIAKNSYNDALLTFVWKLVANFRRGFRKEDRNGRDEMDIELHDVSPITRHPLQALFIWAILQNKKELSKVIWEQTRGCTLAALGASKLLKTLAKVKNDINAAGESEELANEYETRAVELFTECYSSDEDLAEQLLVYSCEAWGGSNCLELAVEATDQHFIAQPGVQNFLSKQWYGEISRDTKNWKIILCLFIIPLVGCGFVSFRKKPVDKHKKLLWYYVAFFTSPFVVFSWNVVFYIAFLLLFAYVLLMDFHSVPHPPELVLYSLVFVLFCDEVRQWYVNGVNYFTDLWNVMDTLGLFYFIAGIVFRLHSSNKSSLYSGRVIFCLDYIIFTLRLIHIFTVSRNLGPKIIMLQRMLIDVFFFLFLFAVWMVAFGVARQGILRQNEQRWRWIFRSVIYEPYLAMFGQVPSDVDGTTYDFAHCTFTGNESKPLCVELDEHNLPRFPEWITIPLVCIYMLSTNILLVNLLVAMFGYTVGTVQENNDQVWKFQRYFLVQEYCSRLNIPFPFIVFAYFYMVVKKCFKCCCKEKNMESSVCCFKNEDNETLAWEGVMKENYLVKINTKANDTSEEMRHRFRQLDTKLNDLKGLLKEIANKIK

CC(C)OC(=O)CNC(=O)[C@@H]1C[C@H](C)CC[C@H]1C(C)C [AX-8, [((1R,2S,5R)-2-isopropyl-5-methyl-cyclohexanecarbonyl)-amino]-acetic acid isopropyl ester] was tested, and the EC50 (human TRPM8; calcium signal AUC, Fluo-8, n=8, read-out: half-maximal response concentration (EC50), activation of human TRPM8) was 390 nM, the “potency as TRPM8 agonist relative to menthol” value (human TRPM8; ratio of EC50 values) was roughly 6 times and the “antagonistic interaction with TRPA1” value (hTRPA1; at 100 μM, channel activated with 100 μM mustard oil, control antagonist 3 μM ruthenium red) was “no agonistic or antagonistic interactions”. The “agonistic activity on hTRPA1” value (hTRPA1; concentrations ≤100 μM, % of mustard oil maximal response, n=4) was “no agonistic or antagonistic interactions; also recorded: no significant agonistic activity on hTRPA1”, the “antagonistic interaction with TRPV1” value (hTRPV1; at 100 μM, channel activated with 0.1 μM capsaicin, control antagonist 3 μM ruthenium red) was “no agonistic or antagonistic interactions” and the “agonistic activity on hTRPV1” value (hTRPV1; concentrations ≤100 μM, % of capsaicin maximal response, n=4) was “no agonistic or antagonistic interactions; also recorded: no agonistic activity on hTRPV1”. The “inhibition of the capsaicin-induced response in the presence of TRPM8 antagonist PF-05105679” value ([1]; AX-8 1 μM, PF-05105679 10 μM pre-incubated 10 min, n=4) was “suppressed by pre-application of the TRPM8 antagonist PF-05105679; also recorded: blocked by the selective TRPM8 inhibitor PF-05105679”, the “inhibition of the capsaicin-induced response (maximum)” value ([1]; capsaicin 1 μM, AX-8 10 nM-1 mM, 10 min incubation, n=3) was “up to 80%” and the “inhibition of the capsaicin-induced response versus concentration” value ([1]; capsaicin 1 μM, n=3) was “blocked in a dose-dependent manner”. For the same compound, the “capsaicin-induced coughs after treatment” value (capsaicin-induced cough; 0.375 mg/animal sprayed in oropharyngeal region 10 min before 0.1 mM capsaicin mist, Baseline (T) 25.0±2.0, n=10, p<0.01) was 9.0±2.0 coughs/10 min and the “effect on capsaicin-induced cough” value (capsaicin-induced cough; 5 mg/mL solution, 75 μL per animal) was “inhibited significantly capsaicin-induced cough; also recorded: inhibits cough induced by an irritant”.

From patent publication US12167995B2, “[((1R,2S,5R)-2-isopropyl-5-methyl-cyclohexanecarbonyl)-amino]-acetic acid isopropyl ester for treatment of chronic cough” (AXALBION SA, priority 2019, dated 2024)
